Results reported in patent US20040170622A1, “Methods and compositions for modulating XBP-1 activity” (President and Fellows of Harvard College, priority 2002, published 2004).
Where a SMILES comes first, the peptide text is derived from it. The star is where a group is joined. Cbz = O=C(OCc1ccccc1)*

Tested on: XBP-1 protein
Assay: XBP-1 protein species in MOPC315 and MM.1S myeloma cells treated with proteasome inhibitors (Western blot)
Format: cell-based
Conditions: mouse myeloma MOPC315 and human myeloma MM.1S
Description: A variety of reversible and irreversible inhibitors that inhibit degradation of proteins by the ubiquitin-proteasome pathway have recently been identified. Proteasome inhibitors MG132 and PS341 block the rapid degradation of ubiquitinated proteins such as unspliced, but not spliced XBP-1. Myeloma cells express primarily spliced XBP-1 protein as expected. […] In this experiment lysates from MOPC315 cells were untreated or treated for 6 hours with 5 ug/ml of tunicamycin or 20 uM of MG-132 and were analyzed for the presence of XBP-1 using XBP-1 antibody. The two forms of XBP-1 were distinguished by their molecular weight.
In the presence of proteasome inhibitors, unspliced XBP-1 protein accumulates in the cell and is present at higher levels than the spliced protein. Lysates from Mm. 1S cells were untreated or treated for 1, 4, or 8 hours with 20 uM of PS-341 and were analyzed by western blotting with anti-XBP-1 antibody. Because unspliced, but not spliced XBP-1 is stabilized, the ratio of unspliced to spliced XBP-1 increases in cells treated with proteasome inhibitors.

CC(C)C[C@@H](C=O)NC(=O)[C@H](CC(C)C)NC(=O)[C@H](CC(C)C)NC(=O)OCc1ccccc1 [MG-132] (Cbz-Leu-Leu-Leu-aldehyde)
amount of unspliced XBP-1 protein: dramatic increase in the amount of unspliced XBP-1 protein | levels of active spliced XBP-1 protein: concomitant decrease in levels of the active spliced XBP-1 protein
